# Publication PMC9352624, “Going deeper into the toxicokinetics of synthetic cannabinoids: in vitro contribution of human carboxylesterases” (Archives of Toxicology, 2022)
# Read-outs that look alike come from different tables or passages of the source.
# Tests used:
# [1] = molecular target: T1, hCES1b (Homo sapiens, UniProt P23141); assay: Initial activity screening with recombinant hCES1b; details: 100 µM substrate, 30 min, 37 °C, 0.2 µg/µL protein, LC–ITMS, mean n = 2
# T1 sequence (P23141 18-567): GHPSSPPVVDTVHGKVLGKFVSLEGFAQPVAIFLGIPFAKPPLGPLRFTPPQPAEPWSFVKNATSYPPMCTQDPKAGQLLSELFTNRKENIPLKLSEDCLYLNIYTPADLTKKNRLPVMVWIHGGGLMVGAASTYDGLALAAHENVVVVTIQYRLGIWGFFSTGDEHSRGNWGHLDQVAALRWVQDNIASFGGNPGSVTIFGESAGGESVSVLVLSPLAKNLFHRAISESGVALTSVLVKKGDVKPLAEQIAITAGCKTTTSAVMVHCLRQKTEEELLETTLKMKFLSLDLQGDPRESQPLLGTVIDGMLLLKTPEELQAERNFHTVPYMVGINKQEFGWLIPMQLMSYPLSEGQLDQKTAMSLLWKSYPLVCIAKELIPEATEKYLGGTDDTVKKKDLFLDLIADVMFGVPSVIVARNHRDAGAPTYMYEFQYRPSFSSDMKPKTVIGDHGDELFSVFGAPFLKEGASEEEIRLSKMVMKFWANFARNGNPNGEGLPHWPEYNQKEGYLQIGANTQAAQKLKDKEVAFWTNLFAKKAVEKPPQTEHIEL
# [2] = molecular target: T2, hCES2 (Homo sapiens, UniProt O00748); assay: Enzyme kinetic studies of ester hydrolysis with hCES2; details: for Vmax (relative), ester hydrolysis by hCES2: peak area ratio metabolite/internal standard
# T2 sequence (O00748 27-559): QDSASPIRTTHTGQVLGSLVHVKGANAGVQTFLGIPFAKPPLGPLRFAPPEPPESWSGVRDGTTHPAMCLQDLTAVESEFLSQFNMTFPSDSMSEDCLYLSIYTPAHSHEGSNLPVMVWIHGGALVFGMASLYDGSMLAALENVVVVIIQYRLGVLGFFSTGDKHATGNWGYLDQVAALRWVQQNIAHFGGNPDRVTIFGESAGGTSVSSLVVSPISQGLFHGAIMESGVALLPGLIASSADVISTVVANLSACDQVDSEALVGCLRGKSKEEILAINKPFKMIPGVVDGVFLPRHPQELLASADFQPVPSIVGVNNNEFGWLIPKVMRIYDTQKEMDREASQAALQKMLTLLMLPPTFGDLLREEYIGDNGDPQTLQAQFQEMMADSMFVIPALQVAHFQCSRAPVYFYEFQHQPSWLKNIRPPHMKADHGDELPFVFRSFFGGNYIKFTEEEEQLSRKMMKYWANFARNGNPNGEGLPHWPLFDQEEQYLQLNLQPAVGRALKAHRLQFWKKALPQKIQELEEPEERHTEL
# [3] = Initial activity screening with pooled human liver microsomes; details: 100 µM substrate, 30 min, 37 °C, 2 µg/µL protein, LC–ITMS, mean n = 2
# [4] = molecular target: T2, hCES2; design: purchased Corning (Amsterdam, The Netherlands); host or cells: baculovirus transfected insect cells; method as in Meyer et al. [2015]; details: identical incubation conditions and analyzing methods; ref Meyer et al. [2015]; read-out: Km, hCES2, literature value; cited from earlier work
# [5] = molecular target: T3, hCES1c (Homo sapiens, UniProt P23141); assay: Enzyme kinetic studies of ester hydrolysis with hCES1c; details: for Vmax (relative), ester hydrolysis by hCES1c: peak area ratio metabolite/internal standard
# T3 sequence (P23141 18-566 isoform P23141-3 limits assumed): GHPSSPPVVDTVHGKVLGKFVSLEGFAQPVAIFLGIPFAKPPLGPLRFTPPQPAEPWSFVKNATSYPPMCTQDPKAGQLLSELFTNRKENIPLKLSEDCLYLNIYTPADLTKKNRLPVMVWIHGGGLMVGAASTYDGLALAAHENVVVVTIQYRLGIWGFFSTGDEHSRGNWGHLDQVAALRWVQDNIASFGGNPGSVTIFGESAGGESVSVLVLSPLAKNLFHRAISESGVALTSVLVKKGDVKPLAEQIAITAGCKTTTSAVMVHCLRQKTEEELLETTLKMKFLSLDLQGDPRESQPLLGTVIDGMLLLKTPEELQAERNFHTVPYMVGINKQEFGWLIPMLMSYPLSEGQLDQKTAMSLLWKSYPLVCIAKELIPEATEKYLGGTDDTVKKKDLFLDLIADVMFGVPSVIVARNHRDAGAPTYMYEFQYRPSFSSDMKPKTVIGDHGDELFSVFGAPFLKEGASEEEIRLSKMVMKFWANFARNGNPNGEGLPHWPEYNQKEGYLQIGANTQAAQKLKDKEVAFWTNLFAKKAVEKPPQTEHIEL
# [6] = molecular target: T2, hCES2; assay: Initial activity screening with recombinant hCES2; details: 100 µM substrate, 30 min, 37 °C, 0.2 µg/µL protein, LC–ITMS, mean n = 2
# [7] = Initial activity screening with pooled human liver S9 fraction; details: 100 µM substrate, 30 min, 37 °C, 2 µg/µL protein, LC–ITMS, mean n = 2
# [8] = molecular target: T1, hCES1b; design: purchased Corning (Amsterdam, The Netherlands); host or cells: baculovirus transfected insect cells; method as in Meyer et al. [2015]; details: identical incubation conditions and analyzing methods; ref Meyer et al. [2015]; read-out: Km, hCES1b, literature value; cited from earlier work
# [9] = molecular target: T1, hCES1b; assay: Enzyme kinetic studies of ester hydrolysis with hCES1b; details: for Vmax (relative), ester hydrolysis by hCES1b: peak area ratio metabolite/internal standard
# [10] = molecular target: T3, hCES1c; design: purchased Corning (Amsterdam, The Netherlands); host or cells: baculovirus transfected insect cells; method as in Meyer et al. [2015]; details: identical incubation conditions and analyzing methods; ref Meyer et al. [2015]; read-out: Km, hCES1c, literature value; cited from earlier work
# [11] = molecular target: T3, hCES1c; assay: Initial activity screening with recombinant hCES1c; details: 100 µM substrate, 30 min, 37 °C, 0.2 µg/µL protein, LC–ITMS, mean n = 2
structure (smiles),measurement,setting,value
"COc1ccc2c3c1O[C@H]1C(OC(C)=O)=CC[C@H]4[C@@H](C2)N(C)CC[C@]314 [Thebacon, reference compound]","Relative amount of hydrolysis metabolite formed, hCES1b",[1],47%
same,"Clint (relative in vitro intrinsic clearance), hCES2",[2]; Clint = Vmax/Km,0.89 AU/min/mg/µM
same,Km,"[2]; read-out: Corrected Km, hCES2, current Km adjusted by 2.2-fold enzyme load activity factor",247 µM
same,Km,"[2]; read-out: Km, ester hydrolysis by hCES2, ± S.D., Michaelis–Menten fit, conditions of Table 1",543 ± 87 µM
same,"Vmax (relative), ester hydrolysis by hCES2",[2]; ± S.D.,482 ± 31 AU/min/mg
same,"Vmax (relative), ester hydrolysis by hCES2","[2]; ± S.D., listed as thebacon",482 AU/min/mg
same,"Relative amount of hydrolysis metabolite formed, pHLM",[3],about 80%
same,Km,[4],166 µM
same,"Clint (relative in vitro intrinsic clearance), hCES1c",[5]; Clint = Vmax/Km,0.54 AU/min/mg/µM
same,Km,"[5]; read-out: Corrected Km, hCES1c, current Km adjusted by 5.3-fold enzyme load activity factor",289 µM
same,Km,"[5]; read-out: Km, ester hydrolysis by hCES1c, ± S.D., Michaelis–Menten fit, conditions of Table 1",1530 ± 470 µM
same,"Vmax (relative), ester hydrolysis by hCES1c",[5]; ± S.D.,831 ± 140 AU/min/mg
same,"Vmax (relative), ester hydrolysis by hCES1c","[5]; ± S.D., listed as thebacon",831 AU/min/mg
same,"Relative amount of hydrolysis metabolite formed, hCES2",[6],19%
same,"Relative amount of hydrolysis metabolite formed, pHLS9",[7],about 80%
same,Km,[8],272 µM
same,"Clint (relative in vitro intrinsic clearance), hCES1b",[9]; Clint = Vmax/Km,0.60 AU/min/mg/µM
same,Km,"[9]; read-out: Corrected Km, hCES1b, current Km adjusted by 2.4-fold enzyme load activity factor",273 µM
same,Km,"[9]; read-out: Km, ester hydrolysis by hCES1b, ± S.D., Michaelis–Menten fit, conditions of Table 1",655 ± 210 µM
same,"Vmax (relative), ester hydrolysis by hCES1b",[9]; ± S.D.,394 ± 40 AU/min/mg
same,"Vmax (relative), ester hydrolysis by hCES1b","[9]; ± S.D., listed as thebacon",394 AU/min/mg
same,Km,[10],264 µM
same,"Relative amount of hydrolysis metabolite formed, hCES1c",[11],10%
